Assay results from patent US11407736B2 (priority 2019, dated 2022).
Like-named read-outs stand apart in the source and are kept apart here.

How the values were obtained:
U937 cells = assay: U937 cell necroptosis assay (TNFa + zVAD, CellTiter-Glo); type: cell-based, human; settings: Homo sapiens, U-937, U937 cells, TNFa + zVAD; read-out: U937 Zvad TNF CTG Recovery, U937, TNFa + zVAD (IC50)
Outline: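 Necroptosis was induced with TNFa at 2 ng/mL final for 18 h at 37 °C, following 1 h compound pre-incubation in the presence of zVAD-fmk (60 uM for U937 plating medium, 40 uM for L929 medium). Luminescent CellTiter-Glo signal gave relative cell survival.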

RIPK1 = RIPK1 (Homo sapiens (Human), UniProt Q13546); assay: RIPK1 ADP-Glo biochemical kinase assay; settings: read-out: RIPK1 ADP-Glo Kinase (IC50)
RIPK1, sequence (Q13546 whole entry, species assumed): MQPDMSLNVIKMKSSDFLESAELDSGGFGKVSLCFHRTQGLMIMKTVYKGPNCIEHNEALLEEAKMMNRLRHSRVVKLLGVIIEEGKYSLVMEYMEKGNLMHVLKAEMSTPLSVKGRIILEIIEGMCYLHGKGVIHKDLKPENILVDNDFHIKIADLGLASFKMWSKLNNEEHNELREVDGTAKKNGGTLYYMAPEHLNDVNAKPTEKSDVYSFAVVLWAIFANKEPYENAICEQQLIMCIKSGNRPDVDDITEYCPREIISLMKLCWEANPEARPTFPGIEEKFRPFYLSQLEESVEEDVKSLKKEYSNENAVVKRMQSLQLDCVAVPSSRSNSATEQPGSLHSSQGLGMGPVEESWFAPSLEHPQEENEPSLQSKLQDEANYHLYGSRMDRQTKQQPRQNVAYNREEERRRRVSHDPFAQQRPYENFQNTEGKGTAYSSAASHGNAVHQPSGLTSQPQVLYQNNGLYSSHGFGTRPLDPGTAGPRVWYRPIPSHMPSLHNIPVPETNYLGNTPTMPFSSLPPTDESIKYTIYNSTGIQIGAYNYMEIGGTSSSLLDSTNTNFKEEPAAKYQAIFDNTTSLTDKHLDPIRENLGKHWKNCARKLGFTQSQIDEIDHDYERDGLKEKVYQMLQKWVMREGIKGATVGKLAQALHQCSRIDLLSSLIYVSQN
Experimental: The final reaction volume was 5.0ul.
Adding 5 μl of ADP-Glo™ terminated the reaction.

L929 cells = assay: L929 cell necroptosis assay (TNFa + zVAD, CellTiter-Glo); type: cell-based, murine; settings: Mus musculus, TNFa + zVAD, read-out: L929-CTG-recovery, L929, TNFa + zVAD (IC50)
Outline: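 Necroptosis was read as CellTiter-Glo luminescence 18 hours after TNFa stimulation at 37° C, 5% CO2. Prior to that, L929 cells (10K/well, plated 18 h) received fresh medium with 40 uM zVAD-fmk plus 4-fold serially diluted compound.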

Structure (SMILES)	IC50 (RIPK1)	IC50 (U937 cells)	IC50 (L929 cells; L929, L929 cells)	IC50 (L929 cells; L929 cells)
CN1C(=O)[C@@H](NC(=O)c2n[nH]c(Cc3ccccc3)n2)COc2ccc(CN3CCn4c(nnc4C(F)(F)F)C3)cc21 [Compound I-47, (S)-5-benzyl-N-(5-methyl-4-oxo-7-((3-(trifluoromethyl)-5,6-dihydro-[1,2,4]triazolo[4,3-a]pyrazin-7(8H)-yl)methyl)-2,3,4,5-tetrahydrobenzo[b][1,4]oxazepin-3-yl)-1H-1,2,4-triazole-3-carboxamide]	68.3 nM	4.6 nM	1.5 nM	
CN1C(=O)[C@@H](NC(=O)c2ncn(Cc3ccccc3)n2)COc2ccc(C#CC(C)(C)C)cc21 [Compound I-48, (S)-1-benzyl-N-(7-(3,3-dimethylbut-1-yn-1-yl)-5-methyl-4-oxo-2,3,4,5-tetrahydrobenzo[b][1,4]oxazepin-3-yl)-1H-1,2,4-triazole-3-carboxamide]	62.4 nM	1.6 nM		0.5 nM
CN1C(=O)[C@@H](NC(=O)c2ncn(Cc3ccccc3)n2)COc2ccc(C#CC3(O)CCC3)cc21 [Compound I-50, (S)-1-benzyl-N-(7-((1-hydroxycyclobutyl)ethynyl)-5-methyl-4-oxo-2,3,4,5-tetrahydrobenzo[b][1,4]oxazepin-3-yl)-1H-1,2,4-triazole-3-carboxamide]	23.4 nM	1.1 nM		0.3 nM
CN1C(=O)[C@@H](NC(=O)c2ncn(Cc3ccccc3)n2)COc2ccc(C#CC3(O)CCCC3)cc21 [Compound I-52, (S)-1-benzyl-N-(7-((1-hydroxycyclopentyl)ethynyl)-5-methyl-4-oxo-2,3,4,5-tetrahydrobenzo[b][1,4]oxazepin-3-yl)-1H-1,2,4-triazole-3-carboxamide]	24.9 nM	0.9 nM	0.3 nM	
CN1C(=O)[C@@H](NC(=O)c2n[nH]c(Cc3ccccc3)n2)COc2ccc(C#CC3(O)CCCC3)cc21 [Compound I-53, (S)-5-benzyl-N-(7-((1-hydroxycyclopentyl)ethynyl)-5-methyl-4-oxo-2,3,4,5-tetrahydrobenzo[b][1,4]oxazepin-3-yl)-1H-1,2,4-triazole-3-carboxamide]	34 nM	1.8 nM	0.5 nM	
CN1C(=O)[C@@H](NC(=O)c2ncn(Cc3ccccc3)n2)COc2ccc(C#CC3(O)CCOCC3)cc21 [Compound I-54, (S)-1-benzyl-N-(7-((4-hydroxytetrahydro-2H-pyran-4-yl)ethynyl)-5-methyl-4-oxo-2,3,4,5-tetrahydrobenzo[b][1,4]oxazepin-3-yl)-1H-1,2,4-triazole-3-carboxamide]	26.9 nM	0.9 nM	0.3 nM	
COC(C)(C)C#Cc1ccc2c(c1)N(C)C(=O)[C@@H](NC(=O)c1n[nH]c(Cc3ccccc3)n1)CO2 [Compound I-61, (S)-5-benzyl-N-(7-(3-methoxy-3-methylbut-1-yn-1-yl)-5-methyl-4-oxo-2,3,4,5-tetrahydrobenzo[b][1,4]oxazepin-3-yl)-1H-1,2,4-triazole-3-carboxamide]	65.4 nM	3.4 nM	1.3 nM	
CN1C(=O)[C@@H](NC(=O)c2n[nH]c(Cc3ccccc3)n2)COc2cc(C#CC(C)(C)O)ccc21 [Compound I-63, (S)-5-benzyl-N-(8-(3-hydroxy-3-methylbut-1-yn-1-yl)-5-methyl-4-oxo-2,3,4,5-tetrahydrobenzo[b][1,4]oxazepin-3-yl)-1H-1,2,4-triazole-3-carboxamide]	30.3 nM	1 nM	0.3 nM	
CN1C(=O)[C@@H](NC(=O)c2cc(Oc3ccccc3)ccn2)COc2cc(C#CC(C)(C)O)ccc21 [Compound I-64, (S)—N-(8-(3-hydroxy-3-methylbut-1-yn-1-yl)-5-methyl-4-oxo-2,3,4,5-tetrahydrobenzo[b][1,4]oxazepin-3-yl)-4-phenoxypicolinamide]	19 nM	0.5 nM	0.1 nM	
CN1C(=O)[C@@H](NC(=O)c2n[nH]c(Cc3c(Cl)cccc3Cl)n2)COc2ccc(C#CC(C)(C)O)cc21 [Compound I-65, (S)-5-(2,6-dichlorobenzyl)-N-(7-(3-hydroxy-3-methylbut-1-yn-1-yl)-5-methyl-4-oxo-2,3,4,5-tetrahydrobenzo[b][1,4]oxazepin-3-yl)-1H-1,2,4-triazole-3-carboxamide]	63.9 nM	42 nM	41.5 nM	
CN1C(=O)[C@@H](NC(=O)c2n[nH]c(Cc3ccccc3)n2)COc2cc(CN3CCn4nc(C(F)(F)F)nc4C3)ccc21 [Compound I-66, (S)-5-benzyl-N-(5-methyl-4-oxo-8-((2-(trifluoromethyl)-5,6-dihydro-[1,2,4]triazolo[1,5-a]pyrazin-7(8H)-yl)methyl)-2,3,4,5-tetrahydrobenzo[b][1,4]oxazepin-3-yl)-1H-1,2,4-triazole-3-carboxamide]	79.4 nM	189 nM	94.9 nM	

Further compounds by falling IC50 (RIPK1), results first:

IC50 (RIPK1)	Structure (SMILES)	IC50 (U937 cells)	IC50 (L929 cells; L929, L929 cells)	IC50 (L929 cells; L929 cells)
82.5 nM	CN1C(=O)[C@@H](NC(=O)c2n[nH]c(Cc3ccccc3)n2)COc2ccc(C#CCCOc3cccc4ncccc34)cc21 [Compound I-45, (S)-5-benzyl-N-(5-methyl-4-oxo-7-(4-(quinolin-5-yloxy)but-1-yn-1-yl)-2,3,4,5-tetrahydrobenzo[b][1,4]oxazepin-3-yl)-1H-1,2,4-triazole-3-carboxamide]	1.4 nM	0.3 nM	
64.4 nM	CC(C)CCc1ccc2c(c1)N(C)C(=O)[C@@H](NC(=O)c1n[nH]c(Cc3ccccc3)n1)CO2 [Compound I-60, (S)-5-benzyl-N-(7-isopentyl-5-methyl-4-oxo-2,3,4,5-tetrahydrobenzo[b][1,4]oxazepin-3-yl)-1H-1,2,4-triazole-3-carboxamide]	4.8 nM	2.4 nM	
60.4 nM	CN1C(=O)[C@@H](NC(=O)c2n[nH]c(Cc3ccccc3)n2)COc2ccc(C#CC(C)(C)C)cc21 [Compound I-49, (S)-5-benzyl-N-(7-(3,3-dimethylbut-1-yn-1-yl)-5-methyl-4-oxo-2,3,4,5-tetrahydrobenzo[b][1,4]oxazepin-3-yl)-1H-1,2,4-triazole-3-carboxamide]	5 nM	1.2 nM	
57.9 nM	C=C(C)C#Cc1ccc2c(c1)N(C)C(=O)[C@@H](NC(=O)c1n[nH]c(Cc3ccccc3)n1)CO2 [Compound I-59, (S)-5-benzyl-N-(5-methyl-7-(3-methylbut-3-en-1-yn-1-yl)-4-oxo-2,3,4,5-tetrahydrobenzo[b][1,4]oxazepin-3-yl)-1H-1,2,4-triazole-3-carboxamide]	1.9 nM	0.7 nM	
43.7 nM	CN1C(=O)[C@@H](NC(=O)c2ncn(Cc3ccccc3)n2)COc2ccc(CN3CCn4c(nnc4C(F)(F)F)C3)cc21 [Compound I-46, (S)-1-benzyl-N-(5-methyl-4-oxo-7-((3-(trifluoromethyl)-5,6-dihydro-[1,2,4]triazolo[4,3-a]pyrazin-7(8H)-yl)methyl)-2,3,4,5-tetrahydrobenzo[b][1,4]oxazepin-3-yl)-1H-1,2,4-triazole-3-carboxamide]	1.2 nM	0.4 nM	
35.5 nM	CN1C(=O)[C@@H](NC(=O)c2ncn(Cc3ccccc3)n2)COc2cc(C#CC(C)(C)O)ccc21 [Compound I-62, (S)-1-benzyl-N-(8-(3-hydroxy-3-methylbut-1-yn-1-yl)-5-methyl-4-oxo-2,3,4,5-tetrahydrobenzo[b][1,4]oxazepin-3-yl)-1H-1,2,4-triazole-3-carboxamide]	2 nM	0.7 nM	
34 nM	CN1C(=O)[C@@H](NC(=O)c2ncn(Cc3ccccc3)n2)COc2ccc(C#CCCOc3cccc4ncccc34)cc21 [Compound I-44, (S)-1-benzyl-N-(5-methyl-4-oxo-7-(4-(quinolin-5-yloxy)but-1-yn-1-yl)-2,3,4,5-tetrahydrobenzo[b][1,4]oxazepin-3-yl)-1H-1,2,4-triazole-3-carboxamide]	1.1 nM	0.2 nM	
33.7 nM	CN1C(=O)[C@@H](NC(=O)c2n[nH]c(Cc3ccccc3)n2)COc2ccc(C#CC3(O)CCOCC3)cc21 [Compound I-55, (S)-5-benzyl-N-(7-((4-hydroxytetrahydro-2H-pyran-4-yl)ethynyl)-5-methyl-4-oxo-2,3,4,5-tetrahydrobenzo[b][1,4]oxazepin-3-yl)-1H-1,2,4-triazole-3-carboxamide]	2 nM	0.6 nM	
21.5 nM	CN1C(=O)[C@@H](NC(=O)c2n[nH]c(Cc3ccccc3)n2)COc2ccc(C#CC3(O)COC3)cc21 [Compound I-57, (S)-5-benzyl-N-(7-((3-hydroxyoxetan-3-yl)ethynyl)-5-methyl-4-oxo-2,3,4,5-tetrahydrobenzo[b][1,4]oxazepin-3-yl)-1H-1,2,4-triazole-3-carboxamide]	3 nM	0.9 nM	
11 nM	CN1C(=O)[C@@H](NC(=O)c2ncn(Cc3ccccc3)n2)COc2ccc(C#CC3(O)COC3)cc21 [Compound I-58, (S)-1-benzyl-N-(7-((3-hydroxyoxetan-3-yl)ethynyl)-5-methyl-4-oxo-2,3,4,5-tetrahydrobenzo[b][1,4]oxazepin-3-yl)-1H-1,2,4-triazole-3-carboxamide]	0.8 nM	0.2 nM	
